For 28 molecules, logP results are on record in the SangsterLogP compilation.

Structures are written as SMILES.

The logP is a log measure of how a compound divides between an organic and an aqueous phase. A higher logP goes with higher lipophilicity.

In turn, `CCCCCCCCC(CCCCC)c1ccccc1` (stereo not drawn) showed a logP of 9.16. Consider `CCCCCCCCCCCC(CC)c1ccccc1` (stereo not drawn), for which the logP is 9.29. The figure for `CCCCCCCCC(CCCC)c1ccccc1` (stereo not drawn) is 8.56; for `CCCCCCCCCCCCCCc1ccccc1` it is 9.95; for `CCCCCCCCCCC(CC)c1ccccc1` (stereo not drawn) it is 8.65. In turn, `CCCCCCCCCCCCCc1ccccc1` had a logP of 9.36. Turning to `CCCCCCCCCC(CCC)c1ccccc1` (stereo not drawn), the logP is 8.62. The figure for `CCCCCCCCC(C)c1ccccc1` (stereo not drawn) is 7.06; for `CCCCCCCC(CCC)c1ccccc1` (stereo not drawn) it is 7.59; for `CCCCCC(CCCC)c1ccccc1` (stereo not drawn) it is 6.9.

The molecule `CCCCCCCCCCCC(C)c1ccccc1` (stereo not drawn) came in with a logP of 8.77. The value for `CCCCCCCCCC(CCCC)c1ccccc1` (stereo not drawn) was 9.16. The value for `CCCCCCCCCC(CC)c1ccccc1` (stereo not drawn) was 8.1. The value for `CCCCCCCCCC(C)c1ccccc1` (stereo not drawn) was 7.63; that for `CCCCCC(CCCCC)c1ccccc1` was 7.45; that for `CCCCCCCCCCCCc1ccccc1` was 8.65. As to `CCCCCCCCCCCc1ccccc1`, the lipophilicity (logP) stood at 8.14. Take `CCCCCCCCCCCCC(C)c1ccccc1` (stereo not drawn): the logP amounted to 9.29. The figure for `CCCCCCC(CCCC)c1ccccc1` (stereo not drawn) is 7.45. The value for `CCCCCCCCC(CCC)c1ccccc1` (stereo not drawn) was 8.07. With `CCCCCCCCCCC(CCC)c1ccccc1` (stereo not drawn), the logP worked out at 9.25. The value for `CCCCCCCC(CCCC)c1ccccc1` (stereo not drawn) was 8.01; that for `CCCCCCCC(CCCCC)c1ccccc1` (stereo not drawn) was 8.56; that for `CCCCCCCCCCC(C)c1ccccc1` (stereo not drawn) was 8.19.

`CCCCCCC(CCCCC)c1ccccc1` (stereo not drawn) gave a logP of 8.01. `CCCCCCCCC(CC)c1ccccc1` (stereo not drawn) returned a log partition coefficient (logP) of 7.53. The value for `CCCCCCC(CCC)c1ccccc1` (stereo not drawn) was 7; that for `CCCCCCCC(CC)c1ccccc1` (stereo not drawn) was 7.
